Assay results as given in publication PMC9709406 (Frontiers in Pharmacology, 2022).
Several values for one entry are separate records, joined by “and”; a condition that tells them apart may be missing. Equal values may be shown once. Read-outs that look alike come from different tables or passages of the source.

How the values were obtained:
H1975 cells = assay: MTT assay for cell proliferation and cytotoxicity, H1975; type: cell-based, human; details: Homo sapiens, NCI-H1975, 48 h, MTT, 48 h, H1975, n = 5; read-out: IC50 48 h H1975
How it was run: (§1)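 Cells seeded at 2,200–2,500/well in RPMI-1640 with 10% FBS; taxol-resistant lines maintained in 100 nm/L paclitaxel. Compounds at 0–50 μM added next day (0.1% DMSO control), five replicate wells, 48 h exposure. Viability by MTT, absorbance 490 nm.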

H1650TR cells = assay: MTT assay, taxol-resistant H1650TR; type: cell-based; details: Homo sapiens, NCI-H1650, 48 h, value in parentheses in H1650 column
Description: (§2) The human cancer cells (H1650, H1975, KYSE70, KYSE410 and KYSE450) were purchased from the Type Culture Collection of the Chinese Academy of Sciences (Shanghai, China). The human immortalized normal esophageal epithelial cell line SHEE was donated by Dr. Enmin Li from the Laboratory of Tumor Pathology (Shantou University Medical College, Shantou, Guangdong, China). Drug-resistant cells (H1650TR, H1975OR, KYSE70TR, KYSE410TR and KYSE450TR) were induced by China-US (Henan) Hormel Cancer Institute. The cellswere cultured in RPMI-1640 complete growth medium containing 100 U/mL penicillin-streptomycin and 10% FBS. Based on the above medium formula, 100 nm/L paclitaxel was added in taxol-resistant cells, 100 nm/L gefitinib was added in gefitinib-resistant cells. The cells were incubated at 37 °C in an atmosphere containing 5% of CO2. The compounds were dissolved in DMSO to make a 50 mM stock solution and were diluted to the concentration of working solutions with complete growth medium before administration.
Cells were seeded in 96-well plates with 2,200–2,500 cells/well in100 μL. One day after seeding, test compounds with the concentration between 0 and 50 μM were added with 0.1% DMSO as control. Five multiple wells for each concentration. After 48 h, MTT was added and incubated in the plate for 1–4 h in the incubator. The absorbance at 490 nm was measured using a microplate reader (Thermo).

SHEE cells = assay: MTT assay, normal esophageal epithelial cell line SHEE; type: cell-based; details: Homo sapiens, 48 h, n = 5
How it was run: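 MTT read-out at 490 nm after 48 h treatment with 0–50 μM compound, applied one day after seeding 2,200–2,500 cells/well; five wells per concentration, 0.1% DMSO as control. Culture in RPMI-1640/10% FBS, with 100 nm/L paclitaxel kept in the taxol-resistant lines.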

KYSE70 cells = assay: MTT assay, KYSE70; type: cell-based, human
How it was run: as §1

KYSE410 cells = assay: MTT assay, KYSE410; type: cell-based, human; details: for IC50: Homo sapiens, KYSE-410
How it was run: as §1

KYSE450TR cells = assay: MTT assay, taxol-resistant KYSE450TR; type: cell-based, human; details: for blank-corrected absorbance 490 nm relative to control (fraction) / inhibition (1 minus fraction of control): 450TR; for IC50: Homo sapiens, MTT
Description: as §2
Cells were seeded in 96-well plates with 2,200–2,500 cells/well in100 μL. One day after seeding, test compounds with the concentration between 0 and 50 μM were added with 0.1% DMSO as control. Five multiple wells for each concentration. […] The absorbance at 490 nm was measured using a microplate reader (Thermo).

KYSE450 cells = assay: Annexin V/PI flow cytometry for apoptosis, KYSE450; type: cell-based, human; details: 48 h
Method: Cell-apoptosis analysis was carried out by flow cytometry using the Annexin V/PI apoptosis methods. […] Cells were harvested and incubated with 250 μL of 1 × Annexin V binding buffer containing 5 μL PI and 5 μL FITC Annexin V (final concentration 1.8 μg/ml, Biolegend (cat: 640945) for 15 min at room temperature in dark. 200 µL of 1 × binding buffer was added for flow cytometry analysis (BD FACSCalibur™ Flow Cytometer).

[1] = target: T1, EGFR wild protein (H672-A1210) (Homo sapiens, UniProt P00533); assay: EGFR protein affinity determined with SPR; type: binding; details: immobilized wild-type EGFR
T1 construct: purchased Active MOTIF 31165
T1 sequence (P00533 672-1210): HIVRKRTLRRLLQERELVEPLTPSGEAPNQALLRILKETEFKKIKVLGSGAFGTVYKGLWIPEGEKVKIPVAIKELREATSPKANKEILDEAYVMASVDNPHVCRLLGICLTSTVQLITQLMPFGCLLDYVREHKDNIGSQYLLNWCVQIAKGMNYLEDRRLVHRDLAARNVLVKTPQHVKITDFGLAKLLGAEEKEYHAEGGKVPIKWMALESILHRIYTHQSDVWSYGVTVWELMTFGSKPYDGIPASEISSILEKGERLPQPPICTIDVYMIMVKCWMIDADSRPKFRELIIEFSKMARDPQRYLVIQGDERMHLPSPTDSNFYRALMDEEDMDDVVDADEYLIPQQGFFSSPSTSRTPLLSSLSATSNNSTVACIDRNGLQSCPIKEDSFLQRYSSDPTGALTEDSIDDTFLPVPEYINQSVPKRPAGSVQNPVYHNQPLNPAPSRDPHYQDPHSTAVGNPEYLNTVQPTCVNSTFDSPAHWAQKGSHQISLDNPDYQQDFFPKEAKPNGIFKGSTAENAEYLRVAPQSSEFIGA
Method: Firstly, EGFR protein (protein concentration : 0.468 μg/μL, Active MOTIF, cat: 31165, lot: 28215004) was covalently immobilized onto a CM5 sensor chip at densities of 2000 response units. […] During the drug-protein interaction, the change of the refractive index was measured in real-time which would allow the plotting of the results of interaction as response units versus time. The interaction results were analyzed under a BIA evaluation 3.0 software.

[2] = tested on: KYSE450 cell-derived xenograft; assay: In vivo cell-derived xenograft (CDX) mouse model; design: species or system nu/nu nude mice
Method: Mice were housed under specific pathogen-free conditions. All animal experiments were approved by the Bioethics Committee of Zhengzhou University and followed the guidelines set by the Institutional Animal Care and Use Committee (CUHCI2019002, CUHCI2021001, and CUHCI2021005). To generate the cell-derived xenograft (CDX) mouse model, nu/nu nude mice (Vital River Labs., Beijing, China) were subcutaneously injected with 5 × 10^6 cells (KYSE450). […] Tumor volume was calculated as follows: length × width × height × 0.5. Tumor size and mice weight were measured every 2–3 days. Compounds were administered for 15 days. The tumors were extracted for weighting, immunohistochemistry and immunofluorescence studies.
Frozen sections were washed three times with PBS and incubated overnight at 4°C with Ki-67 antibody. The next day, sections were washed three times and incubated with secondary antibody in PBS. After several washes, slides were counterstained with DAPI (Solarbio). The sections were mounted on microscope and imaged using fluorescent microscopy (Nikon, Tokyo, Japan). Image-Pro Plus 6.0 was used to analyze the fluorescence intensity.
Histological sections were dewaxed, antigens were repaired and sealed with serum in sequence. Next, histological sections were incubated overnight with diluted primary antibodies (1 : 500 dilution), and the control specimens were treated with PBS. The sections were washed 3 times with PBS. Secondary antibody was added and the system was then placed at 37 °C for half an hour. The systems were washed 3 times with PBS. Color developing agent was added. After washing with water, the system was soaked in hematoxylin for 0.5 min for dyeing. The re-dyed slides were washed with water, and then dehydrated. Neutral gums were dropped on the side of the tissue. The slices were then covered with cover glass, sealed and placed in a ventilator for drying. Immunohistochemical staining analysis was then carried out with Image-Pro Plus 6.0.

[3] = nude mice, 50 mg/kg i.p. every day, 15 days, vs control group and icotinib group

Structure (SMILES): FC(F)(F)c1ccc(-n2cc(-c3cccc(Nc4ncnc5cc6c(cc45)OCCOCCOCCO6)c3)nn2)cc1 [compound 3l]
- IC50 (H1975 cells): 3.26 ± 0.26 µM
- IC50 (H1650TR cells): 8.43 µM
- IC50 (SHEE cells): 4.82 ± 0.23 µM
- IC50 (KYSE70 cells; Homo sapiens, KYSE-70, MTT, 48 h, KYSE70, n = 5): 4.25 ± 0.21 µM
- blank-corrected absorbance 490 nm relative to control (fraction) (KYSE70 cells; KYSE70, concentration 2.25): 0.9298
- inhibition (1 minus fraction of control) (KYSE70 cells; KYSE70, concentration 2.25): 0.07024
- blank-corrected absorbance 490 nm relative to control (fraction) (KYSE70 cells; KYSE70, concentration 4.5): 0.4365
- inhibition (1 minus fraction of control) (KYSE70 cells; KYSE70, concentration 4.5): 0.5635
- blank-corrected absorbance 490 nm relative to control (fraction) (KYSE70 cells; KYSE70, concentration 9): 0.2659
- inhibition (1 minus fraction of control) (KYSE70 cells; KYSE70, concentration 9): 0.7341
- IC50 (KYSE410 cells; KYSE410, MTT, 490 nm, read-out: IC50): 7 µM
- IC50 (KYSE410 cells; MTT, 48 h, KYSE410, n = 5, read-out: IC50 48 h KYSE410): 5.94 ± 0.41 µM
- blank-corrected absorbance 490 nm relative to control (fraction) (KYSE410 cells; KYSE410, concentration 3.5): 0.6286
- inhibition (1 minus fraction of control) (KYSE410 cells; KYSE410, concentration 3.5): 0.3714
- blank-corrected absorbance 490 nm relative to control (fraction) (KYSE410 cells; KYSE410, concentration 7): 0.487
- inhibition (1 minus fraction of control) (KYSE410 cells; KYSE410, concentration 7): 0.513
- blank-corrected absorbance 490 nm relative to control (fraction) (KYSE410 cells; KYSE410, concentration 14): 0.3214
- inhibition (1 minus fraction of control) (KYSE410 cells; KYSE410, concentration 14): 0.6786
- blank-corrected absorbance 490 nm relative to control (fraction) (KYSE450TR cells; concentration 4): 0.04737
- inhibition (1 minus fraction of control) (KYSE450TR cells; concentration 4): 0.9526
- blank-corrected absorbance 490 nm relative to control (fraction) (KYSE450TR cells; concentration 8): 0.04791
- inhibition (1 minus fraction of control) (KYSE450TR cells; concentration 8): 0.9521
- blank-corrected absorbance 490 nm relative to control (fraction) (KYSE450TR cells; concentration 16): 0.1075
- inhibition (1 minus fraction of control) (KYSE450TR cells; concentration 16): 0.8925
- IC50 (KYSE450TR cells; 450t (KYSE450TR), 490 nm, read-out: IC50): 2.1 µM
- IC50 (KYSE450TR cells; 48 h, taxol-resistant KYSE450TR, value in parentheses, read-out: IC50 48 h KYSE450TR (data in parentheses) (converted)): 8.59 µM
- proportion of apoptotic cells (KYSE450 cells; KYSE450, 2 μM): 24.32%
- proportion of apoptotic cells (KYSE450 cells; KYSE450, 4 μM): 39.89%
- Rmax(RU) [1]: 25.21 RU
- Kd ([1]; 25°C): 8.23 µM and 8.24 µM
- expression of proliferation marker Ki-67 in tumor ([2]; 50 mg/kg i.p., immunofluorescence): decreased significantly
- expression of P-ERK (Tyr202/204) in tumor ([2]; 50 mg/kg i.p., immunohistochemistry): decreased significantly
- ESCC tumor volume [2, 3]: markedly reduced
- average tumor weight [2, 3]: markedly reduced
